Results: patent US7375125B2, “Melanocortin-4 receptor binding compounds and methods of use thereof” (Ore Pharmaceuticals, Inc., priority 1999, dated 2008)
Counter-ions that a name gives are not always drawn.

Test system: lean C57BL/6J mice
Experiment: In vivo assay for MC4-R antagonist activity: food intake of food deprived lean mice treated with MT II
Conditions: 15 nmol intracerebroventricular prior to MT II 0.05 nmol, six hour period (FIGS. 2, 3)
Protocol: The following in vivo assay was used to test the effects of MC4-R antagonists on mice.
Male lean C57BL/6J mice were individually housed in macrolon cages (22±2 C.°; 12:12 h light/dark cycle with lights off at 6 pm). Tap water and mouse chow diet were given ad libitum. Mice were stereotaxically implanted with a chronic guide cannula aimed to the third ventricle (intracerabroventricular) one week prior to testing.
In this experiment, food deprived lean mice were injected intracerabroventricularly with either Compound N or Compound O, at a dose of 15 nmol prior to injection of MT II at the dose of 0.05 nmol.

Structure (SMILES) | effect on food intake of mice treated with the MC4-R agonist MT II
COc1ccc([N+](=O)[O-])cc1CSc1ccccc1C1=NCCCN1 [N, 2-[2-(2-Methoxy-5-nitro-benzylsulfanyl)-phenyl]-1,4,5,6-tetrahydro-pyrimidine; hydrobromide] | partially reverses the effect
c1ccc(C2=NCCCN2)c(SCc2cccc3ccccc23)c1 [O, 2-[2-(Naphthalen-1-ylmethylsulfanyl)-phenyl]-1,4,5,6-tetrahydro-pyrimidine; hydrochloride] | did not significantly effect the food intake
